Test results published in PMC6986909 (Nature, 2020).

Key:
Type in all cases: biochemical
[1] = biological target: T1, AcrIII-1 SIRV1 gp29 (Sulfolobus islandicus rod-shaped virus 1, UniProt Q8QL27); experiment: degradation of unlabelled cA6, TLC under […] nm UV; details: 40 uM dimer, 450 uM cA6, MES pH 5.5, 70 °C; weak substrate, very slow
T1 sequence (Q8QL27 1-114): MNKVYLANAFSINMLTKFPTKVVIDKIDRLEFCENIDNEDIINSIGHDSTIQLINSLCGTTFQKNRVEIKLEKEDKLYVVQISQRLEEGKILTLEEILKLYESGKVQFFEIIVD

[2] = biological target: T2, Crn1 Sso2081 (Saccharolobus solfataricus, UniProt Q7LYJ6); experiment: single-turnover cleavage of […]-labelled cA4, denaturing PAGE / TLC; details: 4 uM dimer, Tris-HCl pH 8.0, 100 mM NaCl, 1 mM EDTA, 50 °C; labelled compound
T2 sequence (Q7LYJ6 1-178): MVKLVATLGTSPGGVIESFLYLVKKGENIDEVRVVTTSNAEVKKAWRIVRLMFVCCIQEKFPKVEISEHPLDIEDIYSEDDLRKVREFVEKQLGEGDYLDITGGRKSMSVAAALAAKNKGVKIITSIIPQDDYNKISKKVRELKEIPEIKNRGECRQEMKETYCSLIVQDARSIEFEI

[3] = biological target: T3, AcrIII-1 YddF (Bacillus subtilis, UniProt P96643); experiment: as above; details: 8 uM dimer, MES pH 6.0, 100 mM NaCl, 1 mM EDTA, 37 °C; labelled compound
T3 sequence (P96643 1-108): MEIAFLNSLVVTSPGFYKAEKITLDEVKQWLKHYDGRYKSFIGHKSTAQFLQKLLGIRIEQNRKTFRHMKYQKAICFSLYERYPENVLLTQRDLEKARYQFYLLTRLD

SMILES | degradation of unlabelled cA6, TLC under 254 nm UV [1] | single-turnover cleavage of 32P-labelled cA4, denaturing PAGE / TLC [2] | single-turnover cleavage of 32P-labelled cA4, denaturing PAGE / TLC [3]
Nc1ncnc2c1ncn2[C@@H]1O[C@@H]2COP(=O)(O)O[C@H]3[C@@H](O)[C@H](n4cnc5c(N)ncnc54)O[C@@H]3COP(=O)(O)O[C@H]3[C@@H](O)[C@H](n4cnc5c(N)ncnc54)O[C@@H]3COP(=O)(O)O[C@H]3[C@@H](O)[C@H](n4cnc5c(N)ncnc54)O[C@@H]3COP(=O)(O)O[C@H]3[C@@H](O)[C@H](n4cnc5c(N)ncnc54)O[C@@H]3COP(=O)(O)O[C@H]3[C@@H](O)[C@H](n4cnc5c(N)ncnc54)O[C@@H]3COP(=O)(O)O[C@H]2[C@H]1O [cA6] | strong preference for cA4 over cA6, with the latter degraded very slowly by comparison | – | –
Nc1ncnc2c1ncn2[C@@H]1O[C@@H]2COP(=O)(O)O[C@H]3[C@@H](O)[C@H](n4cnc5c(N)ncnc54)O[C@@H]3COP(=O)(O)O[C@H]3[C@@H](O)[C@H](n4cnc5c(N)ncnc54)O[C@@H]3COP(=O)(O)O[C@H]3[C@@H](O)[C@H](n4cnc5c(N)ncnc54)O[C@@H]3COP(=O)(O)O[C@H]2[C@H]1O [cA4] | – | Kinetic comparison of cA4 degradation by the AcrIII-1 enzymes SIRV1 gp29 and YddF | Both proteins possess a potent ring nuclease activity, rapidly degrading cA4
